US20250179103A1, “6-OXODECAHYDROPYRROLO[1,2-A][1,5]DIAZOCINE AND 6-OXODECAHYDRO-4H-PYRROLO[2,1-D][1,5]THIAZOCINE DERIVATIVES AS STAT3 AND STAT6 MODULATORS FOR THE TREATMENT OF CANCER AND INFLAMMATORY CONDITIONS” (Recludix Pharma, Inc., priority 2022, published 2025)

Assays:
[1] = molecular target: T1, Recombinant STAT6 protein (STAT6(W123-T658)) (Homo sapiens, UniProt P42226); assay: STAT6 Fluorescence Polarization (FP) Assay; format: binding; conditions: STAT6(W123-T658) 250 nM, probe 5-FAM-ApYKPFQDLI-NH2 2 nM, 45-minute incubation
T1 construct: Recombinant STAT6 protein (STAT6(W123-T658))
T1 sequence (P42226 123-658): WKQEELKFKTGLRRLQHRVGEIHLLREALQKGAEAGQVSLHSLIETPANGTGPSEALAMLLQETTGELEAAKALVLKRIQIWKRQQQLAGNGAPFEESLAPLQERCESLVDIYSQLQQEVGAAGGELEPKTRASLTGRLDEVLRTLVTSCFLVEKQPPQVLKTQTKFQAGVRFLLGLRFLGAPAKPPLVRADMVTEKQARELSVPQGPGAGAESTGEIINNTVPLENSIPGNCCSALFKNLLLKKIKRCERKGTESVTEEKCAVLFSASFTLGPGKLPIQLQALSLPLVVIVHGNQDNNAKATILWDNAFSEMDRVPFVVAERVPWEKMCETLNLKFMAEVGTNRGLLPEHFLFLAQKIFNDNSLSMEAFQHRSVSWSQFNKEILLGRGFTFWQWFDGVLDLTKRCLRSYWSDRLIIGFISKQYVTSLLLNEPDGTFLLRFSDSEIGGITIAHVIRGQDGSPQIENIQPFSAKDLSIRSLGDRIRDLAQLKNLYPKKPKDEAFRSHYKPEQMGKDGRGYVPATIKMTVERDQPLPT
In short: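 Displacement of a fluorescent phosphotyrosine peptide (5-FAM-ApYKPFQDLI-NH2, 2 nM) from STAT6(W123-T658) (250 nM), 1% DMSO, pH 7.4 HEPES buffer. After 45 min at room temperature, polarization (mP) was plotted versus log compound concentration and fitted by nonlinear regression to give IC50.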

[2] = molecular target: T2, Recombinant STAT3 protein (STAT3(G127-I722)) (Homo sapiens, UniProt P40763); assay: STAT3 Fluorescence Polarization (FP) Assay; format: binding; conditions: STAT3(G127-I722) 25 nM, probe 5-FAM-GpYLPQTV-NH2 2 nM, 45-minute incubation
T2 construct: Recombinant STAT3 protein (STAT3(G127-I722))
In short: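 STAT3(G127-I722), 25 nM, was mixed with 2 nM 5-FAM-GpYLPQTV-NH2 probe in HEPES pH 7.4 buffer with 1% DMSO and serially diluted compound. FP (mP) was read after 45 min at room temperature. IC50 came from nonlinear regression.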

T2 sequence (P40763 127-722): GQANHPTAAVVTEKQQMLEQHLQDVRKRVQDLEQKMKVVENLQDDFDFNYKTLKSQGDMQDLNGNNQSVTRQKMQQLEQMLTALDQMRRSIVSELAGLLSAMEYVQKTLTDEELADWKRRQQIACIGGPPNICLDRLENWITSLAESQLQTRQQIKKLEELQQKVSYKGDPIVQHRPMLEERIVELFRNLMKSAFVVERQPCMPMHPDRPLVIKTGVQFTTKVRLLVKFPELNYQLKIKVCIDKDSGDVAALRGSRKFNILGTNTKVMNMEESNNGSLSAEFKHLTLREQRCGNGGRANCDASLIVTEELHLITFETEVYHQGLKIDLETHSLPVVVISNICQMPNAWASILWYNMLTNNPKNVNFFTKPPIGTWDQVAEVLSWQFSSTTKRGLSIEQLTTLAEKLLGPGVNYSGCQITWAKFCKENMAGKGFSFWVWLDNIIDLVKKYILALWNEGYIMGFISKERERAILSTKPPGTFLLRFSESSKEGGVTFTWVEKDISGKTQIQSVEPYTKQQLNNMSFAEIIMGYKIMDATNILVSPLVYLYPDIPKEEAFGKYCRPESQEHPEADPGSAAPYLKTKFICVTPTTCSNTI

IC50 [1] [µM] | IC50 [2] [µM] | Structure (SMILES)
0.3 to 3 | 1 to 10 | CC(=O)N1CC[C@H]2CC[C@@H](C(=O)N[C@H]3CN(S(C)(=O)=O)C[C@@H]3O)N2C(=O)[C@@H](NC(=O)c2cc3cc(C(F)(F)P(=O)(O)O)ccc3s2)C1 [Compound 6, ((2-(((5S,8S,10aR)-3-acetyl-8-(((3S,4S)-4-hydroxy-1-(methylsulfonyl)pyrrolidin-3-yl)carbamoyl)-6-oxodecahydropyrrolo[1,2-a][1,5]diazocin-5-yl)carbamoyl)benzo[b]thiophen-5-yl)difluoromethyl)phosphonic Acid]
0.3 to 3 | 0.1 to 1 | CC(=O)N1CC[C@H]2CC[C@@H](C(=O)N3CCC4C3CN4c3ccccc3)N2C(=O)[C@@H](NC(=O)c2cc3cc(C(F)(F)P(=O)(O)O)ccc3s2)C1 (stereo partly drawn) [Compound 11, ((2-(((5S,8S,10aR)-3-acetyl-6-oxo-8-(6-phenyl-2,6-diazabicyclo[3.2.0]heptane-2-carbonyl)decahydropyrrolo[1,2-a][1,5]diazocin-5-yl)carbamoyl)benzo[b]thiophen-5-yl)difluoromethyl)phosphonic acid]
0.3 to 3 | > 10 | CC(=O)N1CC[C@H]2CC[C@@H](C(=O)N(C)c3ccccc3)N2C(=O)[C@@H](NC(=O)c2ccc3ccc(C(F)P(=O)(O)O)cc3c2)C1 (stereo partly drawn) [Compound 14, ((7-(((5S,8S,10aR)-3-acetyl-8-(methyl(phenyl)carbamoyl)-6-oxodecahydropyrrolo[1,2-a][1,5]diazocin-5-yl)carbamoyl)naphthalen-2-yl)fluoromethyl)phosphonic acid]
3 to 30 | > 10 | CC(=O)N1CC[C@H]2CC[C@@H](C(=O)N(C)c3ccccc3)N2C(=O)[C@@H](NC(=O)c2ccc3ccc(CP(=O)(O)O)cc3c2)C1 [Compound 15, ((7-(((5S,8S,10aR)-3-acetyl-8-(methyl(phenyl)carbamoyl)-6-oxodecahydropyrrolo[1,2-a][1,5]diazocin-5-yl)carbamoyl)naphthalen-2-yl)methyl)phosphonic acid]
> 30 | > 10 | CC(=O)N1CC[C@H]2CC[C@@H](C(=O)N(C)c3ccccc3)N2C(=O)[C@@H](NC(=O)c2cc3cc(C(C#N)P(=O)(O)O)ccc3s2)C1 (stereo partly drawn) [Compound 16, ((2-(((5S,8S,10aR)-3-acetyl-8-(methyl(phenyl)carbamoyl)-6-oxodecahydropyrrolo[1,2-a][1,5]diazocin-5-yl)carbamoyl)benzo[b]thiophen-5-yl)(cyano)methyl)phosphonic acid]
0.3 to 3 | 1 to 10 | CC(=O)N1CC[C@H]2CC[C@@H](C(=O)Nc3ccc(-c4ccccc4)cc3)N2C(=O)[C@@H](NC(=O)c2cc3cc(C(F)P(=O)(O)O)ccc3s2)C1 (stereo partly drawn) [Compound 17, ((2-(((5S,8S,10aR)-8-([1,1′-biphenyl]-4-ylcarbamoyl)-3-acetyl-6-oxodecahydropyrrolo[1,2-a][1,5]diazocin-5-yl)carbamoyl)benzo[b]thiophen-5-yl)fluoromethyl)phosphonic acid]
3 to 30 | > 10 | CC(=O)N1CC[C@H]2CC[C@@H](C(=O)N(C)c3ccccc3)N2C(=O)[C@@H](NC(=O)c2cc3cc(C(C)(F)P(=O)(O)O)ccc3s2)C1 (stereo partly drawn) [Compound 18, (1-(2-(((5S,8S,10aR)-3-acetyl-8-(methyl(phenyl)carbamoyl)-6-oxodecahydropyrrolo[1,2-a][1,5]diazocin-5-yl)carbamoyl)benzo[b]thiophen-5-yl)-1-fluoroethyl)phosphonic acid]
> 30 | > 10 | CC(=O)N1CC[C@H]2CC[C@@H](C(=O)N(C)c3ccccc3)N2C(=O)[C@@H](NC(=O)c2cc3cc(C(CO)P(=O)(O)O)ccc3s2)C1 (stereo partly drawn) [Compound 19, (1-(2-(((5S,8S,10aR)-3-acetyl-8-(methyl(phenyl)carbamoyl)-6-oxodecahydropyrrolo[1,2-a][1,5]diazocin-5-yl)carbamoyl)benzo[b]thiophen-5-yl)-2-hydroxyethyl)phosphonic acid]
> 30 | > 10 | CC(=O)N1CC[C@H]2CC[C@@H](C(=O)N(C)c3ccccc3)N2C(=O)[C@@H](NC(=O)c2cc3cc(C(C)P(=O)(O)O)ccc3s2)C1 (stereo partly drawn) [Compound 20, (1-(2-(((5S,8S,10aR)-3-acetyl-8-(methyl(phenyl)carbamoyl)-6-oxodecahydropyrrolo[1,2-a][1,5]diazocin-5-yl)carbamoyl)benzo[b]thiophen-5-yl)ethyl)phosphonic acid]
> 30 | > 10 | CC(=O)N1CC[C@H]2CC[C@@H](C(=O)N(C)c3ccccc3)N2C(=O)[C@@H](NC(=O)c2cc3cc(C(C)(C)P(=O)(O)O)ccc3s2)C1 [Compound 21, (2-(2-(((5S,8S,10aR)-3-acetyl-8-(methyl(phenyl)carbamoyl)-6-oxodecahydropyrrolo[1,2-a][1,5]diazocin-5-yl)carbamoyl)benzo[b]thiophen-5-yl)propan-2-yl)phospnoic aicd]
0.3 to 3 | > 10 | CC(=O)N1CC[C@H]2CC[C@@H](C(=O)N(C)c3ccccc3)N2C(=O)[C@@H](NC(=O)c2cc3cc(C(F)P(=O)(O)O)ccc3s2)C1 (stereo partly drawn) [Compound 22, ((2-(((5S,8S,10aR)-3-acetyl-8-(methyl(phenyl)carbamoyl)-6-oxodecahydropyrrolo[1,2-a][1,5]diazocin-5-yl)carbamoyl)benzo[b]thiophen-5-yl)fluoromethyl)phosphonic acid]
0.3 to 3 | 1 to 10 | CCC(=O)N(C)[C@@H]1CCN(C(=O)[C@@H]2CC[C@@H]3CCN(C(C)=O)C[C@H](NC(=O)c4cc5cc(C(F)(F)P(=O)(O)O)ccc5[nH]4)C(=O)N32)C1 [Compound 23, ((2-(((5S,8S,10aR)-3-acetyl-8-((R)-3-(N-methylpropionamido)pyrrolidine-1-carbonyl)-6-oxodecahydropyrrolo[1,2-a][1,5]diazocin-5-yl)carbamoyl)-1H-indol-5-yl)difluoromethyl)phosphonic acid]
0.3 to 3 | 0.1 to 1 | CC(=O)N1CC(NC(=O)[C@@H]2CC[C@@H]3CCN(C(C)=O)C[C@H](NC(=O)c4cc5cc(C(F)(F)P(=O)(O)O)ccc5[nH]4)C(=O)N32)C1 [Compound 24, ((2-(((5S,8S,10aR)-3-acetyl-8-((1-acetylazetidin-3-yl)carbamoyl)-6-oxodecahydropyrrolo[1,2-a][1,5]diazocin-5-yl)carbamoyl)-1H-indol-5-yl)difluoromethyl)phosphonic acid]
3 to 30 | > 10 | CCC(=O)NCCCN(C)C(=O)[C@@H]1CC[C@@H]2CCN(C(C)=O)C[C@H](NC(=O)/C=C(\C)c3ccc(C(F)(F)P(=O)(O)O)cc3)C(=O)N21 [Compound 25, ((4-((E)-4-(((5S,8S,10aR)-3-acetyl-8-(methyl(3-propionamidopropyl)carbamoyl)-6-oxodecahydropyrrolo[1,2-a][1,5]diazocin-5-yl)amino)-4-oxobut-2-en-2-yl)phenyl)difluoromethyl)phosphonic acid]
> 30 | > 10 | CCC(=O)NCCCN(C)C(=O)[C@@H]1CC[C@@H]2CCN(C(C)=O)C[C@H](NC(=O)/C=C/c3ccc(C(F)(F)P(=O)(O)O)cc3)C(=O)N21 [Compound 26, ((4-((E)-3-(((5S,8S,10aR)-3-acetyl-8-(methyl(3-propionamidopropyl)carbamoyl)-6-oxodecahydropyrrolo[1,2-a][1,5]diazocin-5-yl)amino)-3-oxoprop-1-en-1-yl)phenyl)difluoromethyl)phosphonic acid]
0.3 to 3 | 1 to 10 | CCC(=O)NCCCN(C)C(=O)[C@@H]1CC[C@@H]2CCN(C(C)=O)C[C@H](NC(=O)c3cc4cc(C(F)(F)P(=O)(O)O)ccc4[nH]3)C(=O)N21 [Compound 28, ((2-(((5S,8S,10aR)-3-acetyl-8-(methyl(3-propionamidopropyl)carbamoyl)-6-oxodecahydropyrrolo[1,2-a][1,5]diazocin-5-yl)carbamoyl)-1H-indol-5-yl)difluoromethyl)phosphonic acid]

Structure (SMILES) | IC50 [1] [µM] | IC50 [2] [µM]
CCC(=O)NCCCN(C)C(=O)[C@@H]1CC[C@@H]2CCN(C(C)=O)C[C@H](NC(=O)c3cc4cc(C(=O)P(=O)(O)O)ccc4[nH]3)C(=O)N21 [Compound 27, (2-(((5S,8S,10aR)-3-acetyl-8-(methyl(3-propionamidopropyl)carbamoyl)-6-oxodecahydropyrrolo[1,2-a][1,5]diazocin-5-yl)carbamoyl)-1H-indole-5-carbonyl)phosphonic acid] | 3 to 30 | 1 to 10
